Experimental data: patent publication US10729695B2, “Amino, amido and heterocyclic compounds as modulators of RAGE activity and uses thereof” (The Research Foundation for the State University of New York, priority 2013, dated 2020)

Key:
RAGE tail = RAGE tail (Homo sapiens (Human), UniProt Q15109); experiment: RAGE tail fluorescence titration (Kd determination); conditions: binding to RAGE tail
Procedure: Binding affinities of small molecules for either CT-RAGE or FH1 are determined by performing fluorescence titrations to generate binding isotherms and standard SPR experiments.
A number of representative amino and amido compounds of this invention were or can be tested for their inhibitory activity.
(§1) Fluorescence quenching was used to determine binding.
A number of representative heterocylic compounds of this invention were or can be tested for their inhibitory activity.
as §1, §1

[1] = tested on: primary murine aortic smooth muscle cells; experiment: Murine smooth muscle cell migration (scratch wound, CML AGE); assay type: cell-based, C57BL/6 mice; conditions: 1 μM pre-treatment 1.5 hours, CML AGE 100 μg/ml, 7 hrs
Procedure: Effects of CB-1 to CB-14 on Murine Smooth Muscle Cell Migration. Primary murine aortic smooth muscles retrieved from wild type C57BL/6 mice were grown to 90% confluency in medium containing 10% fetal bovine serum. Cells were serum starved for 16 hrs during which time fetal bovine serum was replaced with 0.1% bovine serum albumin. Following this period of serum starvation, cells were pre-treated for 1.5 hours with the indicated Chembridge library hit denoted #1-14 at a concentration of 1 μM. At the end of that time, compounds were removed and cell monolayers were vertically scratched with a pipet tip to create a “wound” and then RAGE ligand carboxy methyl lysine human serum albumin (CML AGE), 100 μg/ml, was added for 7 hrs. Photographs of the monolayer were taken at time 0 (time of scratch/CML AGE) and at 7 hrs. The ingrowth of the cells was then noted and % area ingrowth was calculated comparing ingrowth at baseline to that at 7 hrs. N=triplicate experiments. * indicates p<0.05

[2] = tested on: primary human aortic smooth muscle cells; experiment: Human smooth muscle cell migration (scratch wound, CML AGE); assay type: cell-based; conditions: 1 μM pre-treatment 1.5 hours, CML AGE 100 μg/ml, 7 hrs
Procedure: Effects of CB-1 to CB-14 on Human Smooth Muscle Cell Migration. Primary human aortic smooth muscles were purchased from Lonza and were grown to 90% confluency in medium containing 10% fetal bovine serum. Cells were serum starved for 16 hrs during which time fetal bovine serum was replaced with 0.1% bovine serum albumin. Following this period of serum starvation, cells were pre-treated for 1.5 hours with the indicated Chembridge library hit denoted #1-14 at a concentration of 1 μM. At the end of that time, compounds were removed and cell monolayers were vertically scratched with a pipet tip to create a “wound” and then RAGE ligand carboxy methyl lysine human serum albumin (CML AGE), 100 μg/ml, was added for 7 hrs. Photographs of the monolayer were taken at time 0 (time of scratch/CML AGE) and at 7 hrs. The ingrowth of the cells was then noted and % area ingrowth was calculated comparing ingrowth at baseline to that at 7 hrs. N=triplicate experiments. * indicates p<0.05 (FIG. 8)

[3] = tested on: delayed type hypersensitivity (DTH) mediated inflammation in mice; experiment: In vivo model of delayed type hypersensitivity (DTH), paw inflammation score; set-up: species or system CF-1 mice; conditions: 5 mg/kg intraperitoneal, four doses; for Inflammation Score Compound ± SEM: paw scored 16 hrs after mBSA, scale 1-5, n=5 mice/group; for reduction in inflammation score in the paw compared to vehicle: vs DMSO vehicle
Procedure: Effects of CB Compounds 1-14 on an in vivo model of delayed type hypersensitivity (DTH). Female CF-1 mice were purchased from the Jackson Laboratories (Bar Harbor Me.) and after a period of at least 3 days acclimation in the animal facility, mice were sensitized over the left inguinal lymph node with an emulsion (0.1 ml) containing methylated bovine serum albumin (mBSA, Sigma, 25 mg/ml), NaCl (0.9%), dextran 5-40×10^6 MW; 50 mg/ml (Sigma), and Freunds' incomplete adjuvant (50%). On day 19 and 20 after sensitization, mice received an intraperitoneal dose of one of CB compounds 1-14 at 5 mg/kg/body weight mouse for a total of four doses. Control animals received equal volumes of compound diluent, DMSO. Immediately following the final compound injection (4th dose), mBSA (0.4 mg/ml; 0.050 ml) was injected into the left plantar hind paw. The paw was scored 16 hrs later by 2 investigators naive to the experimental condition and according to the following criteria: 1=absence of any inflammation; 2=slight rubor and edema; 3=moderate rubor and edema with skin wrinkles; 4=severe rubor and edema without skin wrinkles and 5=severe rubor and edema with toe spreading. See also Hofmann et al. (1999, Cell 97:889-901), the entire content of which is incorporated herein in its entirety. In these experiments, n=5 mice/group.

[4] = target: RAGE tail (ctRAGE) binding to mDial (Homo sapiens (Human), UniProt Q15109); experiment: Primary screen: binding of GFP RAGE tail to mDial at one concentration (10 uM); conditions: 10 μM compound
Procedure: Primary screening was a two-step process in which compounds were first tested in a high throughput assay at one concentration (10 uM). Compounds that reduced binding of RAGE tail (ctRAGE) by at least 50% were then selected and subjected to 4-point dose response (10 uM, 1 uM, 0.1 uM and 0.01 uM) (FIGS. 1, 4, and 5).
Step 1. Add 50 μl anti-mDial (1:160 dilution in 0.1M NaHCO3 pH 9.6)/well. Incubate overnight at 4° C.
Step 2. Use the plate washer to aspirate anti-mDial and wash plates 4× with PBS 100 μl per well per wash.
Step 3. Add 180 μl 3% BSA in 1×PBS. Incubate for 1.5 hrs at room temperature
Step 4. Use the plate washer to aspirate the blocking solution and wash 5× with PBS 300 μl per well.
Step 5. Add 50 μl of mDial containing lysate (85 μg) and incubate at RT for 3 hours.
Step 6. Aspirate the lysate and wash the plate 5× (100 μl) on the plate washer.
Step 7. Add 25 μl PBS to the wells.
Step 8. Add 0.5 μL compound per well.
Step 9. Add 24.5 μL GFP RAGE tail (125 nM) into each well for 2 hrs at room temperature.
Step 10. Aspirate and wash 5× with PBS (100 μL) on the plate washer.
Step 11. Add 100 ul PBS in each well.
Step 12. Detection: Read on fluorescence plate reader excitation 435 nm and 485 nm emission
Compounds that blocked the binding of RAGE tail to mDial by 50% or more were subjected to 4 point dose response: 10 μM, 1 μM, 0.1 μM and 0.01 μM.

Chain of RAGE tail (ctRAGE) binding to mDial (Q15109 364-404): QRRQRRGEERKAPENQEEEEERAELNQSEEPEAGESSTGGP
Chain of RAGE tail (Q15109 364-404): as above

SMILES	Kd (RAGE tail) [nM]	RAGE ligand CML AGE-mediated ingrowth (migration) [1]	RAGE ligand CML AGE-mediated ingrowth (migration) [2]	Inflammation Score Compound ± SEM [3]	reduction in inflammation score in the paw compared to vehicle [3]	inhibition at 10 µM [4] [%]
COc1cc(SC)ccc1C(=O)Nc1cccc(C)n1 [CB-1]	4 ± 1	no inhibitory effect	no inhibitory effect	3.4 ± 0.55/3.4 ± 0.55	–	–
C=CCOc1ccc2c(C(F)(F)F)cc(=O)oc2c1 [CB-2]	6.5 ± 1	prevent RAGE ligand CML AGE-mediated ingrowth (migration)	prevent RAGE ligand CML AGE-mediated ingrowth (migration)	3.2 ± 0.45/3.4 ± 0.55	–	–
Cc1nc2ccccc2n1CC(O)Cn1c2ccccc2c2ccccc21 (stereo not shown) [CB-3]	18 ± 1	prevent RAGE ligand CML AGE-mediated ingrowth (migration)	prevent RAGE ligand CML AGE-mediated ingrowth (migration)	2.2 ± 0.45/3.4 ± 0.55	statistically significant reduction in inflammation score	–
OC(Cn1ccc2ccccc21)Cn1cnc2ccccc21 (stereo not shown) [CB-4]	2 ± 1	prevent RAGE ligand CML AGE-mediated ingrowth (migration)	prevent RAGE ligand CML AGE-mediated ingrowth (migration)	3.0 ± 0.71/3.4 ± 0.55	–	–
Oc1cccc(Nc2nc(-c3ccc(F)cc3F)cs2)c1 [CB-5]	–	prevent RAGE ligand CML AGE-mediated ingrowth (migration)	prevent RAGE ligand CML AGE-mediated ingrowth (migration)	3.6 ± 0.55/3.4 ± 0.55	–	–
COc1cc(NC(C)=O)c(Cl)cc1C(=O)Nc1nccs1 [CB-6]	–	prevent RAGE ligand CML AGE-mediated ingrowth (migration)	prevent RAGE ligand CML AGE-mediated ingrowth (migration)	3.0 ± 0.71/3.6 ± 0.55	–	–
COc1ccccc1-c1cc(C(F)(F)F)nc(N2CCOCC2)n1 [CB-7]	0.55 ± 0.05	prevent RAGE ligand CML AGE-mediated ingrowth (migration)	prevent RAGE ligand CML AGE-mediated ingrowth (migration)	3.4 ± 0.55/3.6 ± 0.55	–	–
COC(=O)c1cc(OC)c(OC)cc1NC(=O)C1Oc2ccccc2OC1C (stereo not shown) [CB-8]	2 ± 0.5	prevent RAGE ligand CML AGE-mediated ingrowth (migration)	prevent RAGE ligand CML AGE-mediated ingrowth (migration)	3.4 ± 0.55/3.6 ± 0.55	–	–
Cc1ccc(S(=O)(=O)N(C)C(F)F)cc1 [CB-9]	17300 ± 500	prevent RAGE ligand CML AGE-mediated ingrowth (migration)	prevent RAGE ligand CML AGE-mediated ingrowth (migration)	3.6 ± 0.55/3.6 ± 0.55	–	–
CC1=NN(c2nc3ccccc3[nH]2)C(=O)C1CCC(C)C (stereo not shown) [CB-10]	–	prevent RAGE ligand CML AGE-mediated ingrowth (migration)	prevent RAGE ligand CML AGE-mediated ingrowth (migration)	3.2 ± 0.84/3.6 ± 0.55	–	–
Cc1cc2n(c1)CCn1c(C)ccc1-2 [CB-11]	1.2 ± 0.5	prevent RAGE ligand CML AGE-mediated ingrowth (migration)	prevent RAGE ligand CML AGE-mediated ingrowth (migration)	3.2 ± 0.45/3.4 ± 0.55	–	–
COC(=O)c1cc(-c2ccc(NC(C)=O)cc2)nc2ccccc12 [CB-12]	> 100000	prevent RAGE ligand CML AGE-mediated ingrowth (migration)	prevent RAGE ligand CML AGE-mediated ingrowth (migration)	2.4 ± 0.55/3.4 ± 0.55	statistically significant reduction in inflammation score	–
Cc1c(Cl)cccc1NC(=O)CNC(=O)c1ccccc1F [CB-13]	123 ± 1	prevent RAGE ligand CML AGE-mediated ingrowth (migration)	prevent RAGE ligand CML AGE-mediated ingrowth (migration)	3.4 ± 0.55/3.4 ± 0.55	–	–
Oc1ccc(NCc2ccc(Br)cc2)cc1 [CB-14]	1.4 ± 0.3	prevent RAGE ligand CML AGE-mediated ingrowth (migration)	prevent RAGE ligand CML AGE-mediated ingrowth (migration)	3.2 ± 0.45/3.4 ± 0.55	–	–
CC(=O)Nc1ccc(C(=O)Nc2nccs2)cc1 [CD-1]	–	–	–	–	–	31
OC(Cn1ccnc1)Cn1c2ccccc2c2ccccc21 (stereo not shown) [CD-4]	75	–	–	–	–	–
Cn1c(=O)n(CC(O)Cn2c3ccccc3c3ccccc32)c2ccccc21 (stereo not shown) [CD-6]	4	–	–	–	–	–
CN(Cc1ccccc1)CC(O)Cn1cnc2ccccc21 (stereo not shown) [CD-7]	–	–	–	–	–	31
N#Cc1ccc(OCC(O)Cn2cnc3ccccc32)cc1 (stereo not shown) [CD-8]	–	–	–	–	–	27
O=C(O)COc1ccc2c(C(F)(F)F)cc(=O)oc2c1 [CD-12]	–	–	–	–	–	11
OC(COCc1ccccc1)Cn1cnc2ccccc21 (stereo not shown) [CD-14]	–	–	–	–	–	26
OC(COc1cccc2ccccc12)Cn1cnc2ccccc21 (stereo not shown) [CD-16]	–	–	–	–	–	69
OC(CN(c1ccccc1)c1ccccc1)Cn1cnc2ccccc21 (stereo not shown) [CD-18]	–	–	–	–	–	45
O=C(O)c1ccccc1OCC(O)Cn1cnc2ccccc21 (stereo not shown) [CD-19]	–	–	–	–	–	24
CC1=NN(c2nc3ccccc3s2)C(=O)C1CCC(C)C (stereo not shown) [CD-20]	–	–	–	–	–	48
COc1ccccc1-c1cc(C(F)(F)F)nc(NC2CCCCC2)n1 [CD-21]	–	–	–	–	–	18
OC(COc1ccccc1)Cn1cnc2ccccc21 (stereo not shown) [CD-28]	–	–	–	–	–	37
Cc1nccn1CC(O)Cn1c2ccccc2c2ccccc21 (stereo not shown) [CD-29]	78	–	–	–	–	–
COc1ccccc1-c1cc(C(F)(F)F)nc(N2CCN(c3ccccc3OC)CC2)n1 [CD-42]	–	–	–	–	–	42
